Assay results from patent US9572890B2, “Oral formulations of mitochondrially-targeted antioxidants and their preparation and use” (MITOTECH SA, priority 2011, dated 2017).

How the values were obtained:
[1] = Storage stability of reduced SkQ1H2 formulations (Example 9); format: physicochemical
Protocol: The sample also can be stabilized by being dissolved in any deoxygenated anhydrous and aprotic solvents.
The stability of SkQ1H2 in the prepared composition was investigated by storage at 4° C. in darkness (Table 12).
The stability of SkQ1H2 in the prepared composition was investigated by storage at 60° C. in darkness (Table 13).
The yield of SkQ1H2 was 2 g (approx 100% yield) in the form of light powder. The stability results are shown below (Table 14 and Table 15).
The stability of SkQ1H2 in the prepared composition was investigated by storage at 60° C. in darkness (Table 16).
The stability of SkQ1H2 in the compositions prepared by both methods was investigated by storage at 60° C. and 4° C. in darkness (Table 17).
The stability of SkQ1H2 in compositions prepared by Methods 3 and 4 was investigated by storage at 60° C. in darkness (Table 18).
The stability of SkQ1H2 in compositions prepared by both methods was investigated by storage at 60° C. in darkness (Table 18).
The stability of SkQ1H2 in the prepared solution was investigated by storage at RT in darkness (Table 19).
The stability of SkQ1H2 in the prepared solution was investigated by storage at 60° C. in darkness (Table 20).

[2] = Stability of MTAs in liquid solvents (degradation rate); format: physicochemical
Protocol: Liquid solvents were also tested for their ability to stabilize representative MTAs SkQ1 and SkQR1. The solvents tested were water solutions of glycerol (10% to 100%), 50% lactulose, and 1,2-propylene glycol (10% to 100%, at 60° C.). Some representative results are shown below (Table 1).

[3] = Stability in dark plastic or glass vials (light sensitivity); format: physicochemical
Text: Accordingly, one of the ways to further improve or increase stability of SkQ liquid compositions during storage and transportation is to protect it from light.

[4] = system: human endothelial cells EA.hy926; assay: TNF-α induced death of endothelial cells (MTT test); format: cell-based; settings: 0.2 nM pre-incubation 4 d; TNF-α 0.25 to 50 ng/ml for 2 d
Protocol: Human endothelial cell line EA.hy926 (ATCC Collection; catalog number CRL-2922) was used as a model of vascular endothelium. This cell line is similar to primary HUVEC cell line (Edgell et al. (1983) PNAS, 80(12):3734-7; Edgell et al. (1990) In Vitro Cell Dev Biol., 26(12):1167-72) and widely used as a relevant model for inflammation studies (Riesbeck et al. (1998) Clin. Vaccine Immunol., 5:5675-682).
Accordingly, human endothelial cells EA.hy926 were pre-incubated with 0.2 nM SkQR1 or 2 nM SkQ1 solution in Dulbecco's Modified Eagle's Medium (DMEM) supplemented with 10% of fetal serum (Example 1) for 4 d. After that the cells were incubated overnight with fresh DMEM medium with 0.2% of fetal serum. The cells were incubated 2 d with TNF-α (0.25 ng/ml to 50 ng/ml) and cell death was monitored using standard MTT test (Berridge et al. (1996) Biochemica, 4:14-9). The data from this assay is shown as means±S.E. at least for 3 separate experiments.

[5] = SkQ1H2 in 55% EtOH in water, 0 h
[6] = SkQ1H2 in 55% EtOH in water, 0.5 h
[7] = SkQ1H2 in 55% EtOH in water, 1.48 h
[8] = SkQ1H2 in 55% EtOH in water, 2.8 h
[9] = SkQ1H2 in 55% EtOH in water, 3.44 h
[10] = SkQ1H2 in 55% EtOH in water, 4.37 h
[11] = SkQ1H2 in 55% EtOH in water, 23.23 h
[12] = SkQ1H2 in 55% EtOH in water, 143.45 h (~6 days)
[13] = SkQ1H2 in CH2Cl2, 143.45 h (~6 days)
[14] = SkQ1H2 powder, Storage at 60° C., day 0
[15] = SkQ1H2 powder, Storage at 60° C., day 5
[16] = SkQ1H2 powder, Storage at 60° C., day 7
[17] = SkQ1H2 powder, Storage at 60° C., day 11
[18] = SkQ1H2 powder, Storage at 60° C., day 17
[19] = SkQ1H2 powder, Storage at 60° C., day 28
[20] = SkQ1H2 powder, Storage at RT, day 0
[21] = SkQ1H2 powder, Storage at RT, day 3
[22] = SkQ1H2 powder, Storage at RT, day 5
[23] = SkQ1H2 powder, Storage at RT, day 7
[24] = SkQ1H2 powder, Storage at RT, day 11
[25] = SkQ1H2 powder, Storage at RT, day 17
[26] = SkQ1H2 powder, Storage at RT, day 28
[27] = SkQ1H2 with ascorbic acid (5 eq) and sorbite (30 wt parts), solid, time not given
[28] = SkQ1H2 with ascorbic acid (5 eq) and sorbite in 30% 1,2-propylene glycol, 60° C. in darkness, day 0
[29] = SkQ1H2 with ascorbic acid (5 eq) and sorbite in 30% 1,2-propylene glycol, 60° C. in darkness, day 3
[30] = SkQ1H2 with ascorbic acid (5 eq) and sorbite in 30% 1,2-propylene glycol, 60° C. in darkness, day 14
[31] = SkQ1H2 with ascorbic acid (5 eq) and sorbite in 30% 1,2-propylene glycol, 60° C. in darkness, day 27
[32] = SkQ1H2 with ascorbic acid (10 eq) in 55% EtOH, RT in darkness, 0 h
[33] = SkQ1H2 with ascorbic acid (10 eq) in 55% EtOH, RT in darkness, 1.5 h
[34] = SkQ1H2 with ascorbic acid (10 eq) in 55% EtOH, RT in darkness, 68 h (~3 days)
[35] = SkQ1H2 with ascorbic acid (10 eq) in 55% EtOH, RT in darkness, 118 h (~5 days)
[36] = SkQ1H2 with ascorbic acid (10 eq) in 55% EtOH, RT in darkness, 165 h (~7 days)
[37] = SkQ1H2 with sorbite (30 wt parts), solid, 60° C. in darkness, day 0
[38] = SkQ1H2 with sorbite (30 wt parts), solid, 60° C. in darkness, day 4
[39] = SkQ1H2 with sorbite (30 wt parts), solid, 60° C. in darkness, day 7
[40] = SkQ1H2 with sorbite (30 wt parts), solid, 60° C. in darkness, day 11
[41] = SkQ1H2 with sorbite (30 wt parts), solid, 60° C. in darkness, day 15
[42] = SkQ1H2 with sorbite (30 wt parts), solid, 60° C. in darkness, day 28

Structure (SMILES): Cc1c(O)cc(CCCCCCCCCC[P+](c2ccccc2)(c2ccccc2)c2ccccc2)c(O)c1C [SkQ1H2]
- stability of isolated SkQ1H2 light powder ([1]; 1 month at RT or several months at 4° C. in darkness under inert atmosphere without humidity access): excellent stability
- SkQ1, % [1, 5]: 2.21%
- SkQ1H2, % [1, 5]: 97.79%
- SkQ1, % [1, 6]: 9.21%
- SkQ1H2, % [1, 6]: 90.79%
- SkQ1, % [1, 7]: 14.76%
- SkQ1H2, % [1, 7]: 85.24%
- SkQ1, % [1, 8]: 32.57%
- SkQ1H2, % [1, 8]: 67.43%
- SkQ1, % [1, 9]: 47.83%
- SkQ1H2, % [1, 9]: 52.17%
- SkQ1, % [1, 10]: 56.57%
- SkQ1H2, % [1, 10]: 43.43%
- SkQ1, % [1, 11]: 82.39%
- SkQ1H2, % [1, 11]: 16.55%
- SkQ1, % [1, 12]: 77.23%
- SkQ1H2, % [1, 12]: 9.63%
- SkQ1, % ([1]; SkQ1H2 in CH2Cl2, 0 h): 2.21%
- SkQ1H2, % ([1]; SkQ1H2 in CH2Cl2, 0 h): 97.79%
- SkQ1, % ([1]; SkQ1H2 in CH2Cl2, 0.5 h): 4.01%
- SkQ1H2, % ([1]; SkQ1H2 in CH2Cl2, 0.5 h): 95.99%
- SkQ1, % ([1]; SkQ1H2 in CH2Cl2, 1.48 h): 5.68%
- SkQ1H2, % ([1]; SkQ1H2 in CH2Cl2, 1.48 h): 94.32%
- SkQ1, % ([1]; SkQ1H2 in CH2Cl2, 2.8 h): 6.42%
- SkQ1H2, % ([1]; SkQ1H2 in CH2Cl2, 2.8 h): 93.58%
- SkQ1, % ([1]; SkQ1H2 in CH2Cl2, 3.44 h): 5.57%
- SkQ1H2, % ([1]; SkQ1H2 in CH2Cl2, 3.44 h): 94.43%
- SkQ1, % ([1]; SkQ1H2 in CH2Cl2, 4.37 h): 7.18%
- SkQ1H2, % ([1]; SkQ1H2 in CH2Cl2, 4.37 h): 92.82%
- SkQ1, % ([1]; SkQ1H2 in CH2Cl2, 23.23 h): 9.30%
- SkQ1H2, % ([1]; SkQ1H2 in CH2Cl2, 23.23 h): 89.61%
- SkQ1, % [1, 13]: 16.53%
- SkQ1H2, % [1, 13]: 82.11%
- SkQ1, % [1, 14]: 0.75%
- SkQ1H2, % [1, 14]: 99.2%
- SkQ1, % [1, 15]: 0.55%
- SkQ1H2, % [1, 15]: 99.45%
- SkQ1, % [1, 16]: 0%
- SkQ1H2, % [1, 16]: 100%
- SkQ1, % [1, 17]: 0.19%
- SkQ1H2, % [1, 17]: 99.76%
- SkQ1, % [1, 18]: 1.24%
- SkQ1H2, % [1, 18]: 98.61%
- SkQ1, % [1, 19]: 11.04%
- SkQ1H2, % [1, 19]: 88.7%
- SkQ1, % [1, 20]: 1.01%
- SkQ1H2, % [1, 20]: 98.99%
- SkQ1, % [1, 21]: 0.66%
- SkQ1H2, % [1, 21]: 99.34%
- SkQ1, % [1, 22]: 0.63%
- SkQ1H2, % [1, 22]: 99.37%
- SkQ1, % [1, 23]: 0.71%
- SkQ1H2, % [1, 23]: 99.14%
- SkQ1, % [1, 24]: 0.83%
- SkQ1H2, % [1, 24]: 99.12%
- SkQ1, % [1, 25]: 0.28%
- SkQ1H2, % [1, 25]: 99.49%
- SkQ1, % [1, 26]: 0.50%
- SkQ1H2, % [1, 26]: 99.45%
- number of impurities with content >0.5% ([1]; SkQ1H2 with ascorbic acid (5 eq) and sorbite (30 wt parts), solid, 1 year at 4° C. in darkness): 0
- number of impurities with content >0.5% ([1]; SkQ1H2 with ascorbic acid (5 eq) and sorbite (30 wt parts), solid, 20 days at 60° C. in darkness): 0
- SkQ1, % [1, 27]: 1.209%
- SkQH2, % [1, 27]: 97.753%
- SkQ1, % [1, 28]: 0.18%
- SkQH2, % [1, 28]: 99.82%
- SkQ1, % [1, 29]: 1.03%
- SkQH2, % [1, 29]: 98.67%
- SkQ1, % [1, 30]: 28.34%
- SkQH2, % [1, 30]: 69.51%
- SkQ1, % [1, 31]: 51.9%
- SkQH2, % [1, 31]: 3.2%
- SkQ1, % [1, 32]: 0.27%
- SkQ1H2, % [1, 32]: 99.73%
- SkQ1, % [1, 33]: 0.93%
- SkQ1H2, % [1, 33]: 99.07%
- SkQ1, % [1, 34]: 0.59%
- SkQ1H2, % [1, 34]: 99.05%
- SkQ1, % [1, 35]: 0.31%
- SkQ1H2, % [1, 35]: 99.69%
- SkQ1, % [1, 36]: 0.26%
- SkQ1H2, % [1, 36]: 99.74%
- SkQ1, % [1, 37]: 0.61%
- SkQ1H2, % [1, 37]: 99.01%
- SkQ1, % [1, 38]: 8.7%
- SkQ1H2, % [1, 38]: 90.8%
- SkQ1, % [1, 39]: 9.4%
- SkQ1H2, % [1, 39]: 90.2%
- SkQ1, % [1, 40]: 10.7%
- SkQ1H2, % [1, 40]: 88.8%
- SkQ1, % [1, 41]: 10.4%
- SkQ1H2, % [1, 41]: 89.1%
- SkQ1, % [1, 42]: 5.3%
- SkQ1H2, % [1, 42]: 42.9%
- oxidation to SkQ1 ([1]; exposed to air or wet atmosphere or dissolved in water or any protonic solvent): quickly oxides

Structure (SMILES): CC/N=c1/cc2oc3cc(NCC)c(C)cc3c(-c3ccccc3C(=O)OCCCCCCCCCCC3=CC(=O)C(C)=C(C)C3=O)c-2cc1C [SkQR1]
- Degradation rate, percent per day ([2]; 100 mkM in 10% 1,2-propylene glycol, at 60° C.): 6.19 percent per day
- Degradation rate, percent per day ([2]; 100 mkM in 20% 1,2-propylene glycol, at 60° C.): 0.34 percent per day
- Degradation rate, percent per day ([2]; 100 mkM in 30% 1,2-propylene glycol, at 60° C.): 0.32 percent per day
- Degradation rate, percent per day ([2]; 100 mkM in 40% 1,2-propylene glycol, at 60° C.): 0.06 percent per day
- Degradation rate, percent per day ([2]; 100 mkM in 50% 1,2-propylene glycol, at 60° C.): <0.01 percent per day
- Degradation rate, percent per day ([2]; 100 mkM in 60% 1,2-propylene glycol, at 60° C.): <0.01 percent per day
- Degradation rate, percent per day ([2]; 100 mkM in 70% 1,2-propylene glycol, at 60° C.): 0.05 percent per day
- Degradation rate, percent per day ([2]; 100 mkM in 80% 1,2-propylene glycol, at 60° C.): 0.23 percent per day
- Degradation rate, percent per day ([2]; 100 mkM in 90% 1,2-propylene glycol, at 60° C.): 0.30 percent per day
- Degradation rate, percent per day ([2]; 100 mkM in 100% 1,2-propylene glycol, at 60° C.): 0.23 percent per day
- Degradation rate, percent per day ([2]; 140 mkM in 50% Glycerol): 0.7 percent per day
- stability [3]: significantly increased
- cell death compared to control without MTA [4]: greatly reduced

Structure (SMILES): COc1cc2c(cc1OC)-c1c(CC(=O)OCCCCCCCC3=CC(=O)C(C)=C(C)C3=O)c3ccc(OC)c(OC)c3c[n+]1CC2 [SkQBP1]
- Degradation rate, percent per day ([2]; 400 mkM in 50% Glycerol): 0.08 percent per day
